The assay has as its system PTEN-P2/GFP prostate cancer cells. The experiment in a line: Effect of 1,4-naphthoquinone analogs on PTEN-P2/GFP cell proliferation (WST-1 cell viability, 24 h). The note with it: Mus musculus, WST-1, medium with 10% FBS and DHT, read-out: PTEN-P2/GFP cell proliferation, percent of control. The format is cell-based. The method, then:
Cells are grown in phenol red-free DMEM medium containing 10% FBS, 2 mM L-glutamine, 100 U/ml penicillin/100 μg/ml streptomycin, insulin-selenium-transferrin (5 μg/ml insulin), and DHT 10^−8M final. Androgen withdrawal is achieved by not adding DHT to the medium. Cells are maintained in a humidified incubator at 37° C. and 5% CO2. G418 (100 μg/ml) is added to maintain stable expression of H2B-GFP.
100 microliters of PTEN-P2/GFP prostate cancer cells were plated at a density of 8000 cells/well in 96-well plates (triplicates) in growing medium containing 10% Fetal Bovine Serum and DHT. The next day, increasing concentrations of a 1,4-naphthoquinone analog (diluted from 10 mM DMSO stock solutions) were added. DMSO used as solvent for all analogs, was kept constant through the 96-well plates. The control consisted of DMSO alone. The cells were subsequently incubated for 24 hours at 37° C. and 5% CO2 in normal cell growth conditions. Cell viability was assessed by adding 9 μL/well of WST-1 reagent (Clontech), which measured mitochondrial activity of live cells. […] The incubation time was 3 hours at 37° C. Optical density of the cell samples was measured at 460 nm, by using plate reader Spectra Max 250 (Molecular Devices). The drug was determined to be cytotoxic when OD values show an inverse correlation with analog concentrations. The results are shown in TABLES 3.1-3.4, FIGS. 2A-2E, and FIGS. 3A-3D.
(Tetrazolium dyes change colour on reduction, which living cells bring about.)

As for `COC(=O)c1ccccc1OC1=C(Br)C(=O)c2ccccc2C1=O` [Analog F19, methyl 3-bromo-1,4-naphthoquinon-2-yl-salicylate], the activity at 2 µM is 99.5%, the activity at 3 µM turned out to be 94.3%, the activity at 4 µM is 85.2% and the activity at 5 µM stood at 81%. Moreover, the activity at 6 µM was 68.2%, the activity at 7 µM is 59.3%, the activity at 10 µM stood at 32.3% and the activity at 15 µM worked out at 20.1%. The activity at 25 µM amounted to 12.1%.

`O=C1C=C(Oc2ccc(O)cc2)C(=O)c2ccccc21` [Analog F10, 2-(4-hydroxyphenoxy)-1,4-naphthoquinone]: the activity at 2 µM came out at 98.6%, the activity at 3 µM was 95.4%, the activity at 4 µM was 91.2% and the activity at 5 µM was 82.8%. Moreover, the activity at 6 µM is 67.1%, the activity at 7 µM was found to be 53.6%, the activity at 10 µM worked out at 25.2% and the activity at 15 µM is 16.7%. The activity at 25 µM was found to be 17.6%.

As for `COc1cccc2c1C(=O)C=C(C)C2=O` [Analog F47, 5-methoxy-2-methyl-1,4-naphthoquinone], the activity at 1 µM worked out at 105%, the activity at 2 µM amounted to 104%, the activity at 3 µM was determined as 104% and the activity at 4 µM stood at 107%. Moreover, the activity at 5 µM amounted to 105%, the activity at 6 µM came to 105%, the activity at 7 µM was 106% and the activity at 10 µM was found to be 109%. The activity at 25 µM worked out at 78.8% and the activity at 50 µM was determined as 11.1%.

For the compound `Cc1cccc(OC2=CC(=O)c3ccccc3C2=O)c1` [Analog F08, 2-(3-methylphenoxy)-1,4-naphthoquinone], the activity at 2 µM stood at 102%, the activity at 3 µM turned out to be 101%, the activity at 4 µM turned out to be 99.4% and the activity at 5 µM worked out at 92.2%. Moreover, the activity at 6 µM was found to be 83.9%, the activity at 7 µM amounted to 68.8%, the activity at 10 µM was found to be 30.8% and the activity at 15 µM was 12.8%. The activity at 25 µM came to 9.66%.

On to `O=C1C=C(Oc2ccc([N+](=O)[O-])cc2)C(=O)c2ccccc21` [Analog F12, 2-(4-nitrophenoxy)naphthalene-1,4-dione], for which the activity at 1.2 µM is 122%, the activity at 2.5 µM worked out at 118%, the activity at 5 µM came out at 118% and the activity at 7.5 µM is 117%. For the same compound, the activity at 10 µM was 115%, the activity at 15 µM was determined as 78.8% and the activity at 20 µM was 8.27%.

With `O=C1C(Oc2ccc(O)cc2)=C(Oc2ccc(O)cc2)C(=O)c2ccccc21` [Analog F24, 2,3-bis(4-hydroxyphenoxy)-1,4-naphthoquinone], the activity at 1.2 µM is 111%, the activity at 2.5 µM came out at 87.1%, the activity at 5 µM was found to be 57.6% and the activity at 7.5 µM worked out at 30.9%. The activity at 10 µM was 8.07%, the activity at 15 µM came out at 6.73% and the activity at 20 µM was 3.73%.

With `CCOC1=CC(=O)c2ccccc2C1=O` [Analog F53, 2-ethoxy-1,4-naphthoquinone], the activity at 1 µM came out at 94%, the activity at 2 µM worked out at 91.8%, the activity at 3 µM stood at 89.9% and the activity at 4 µM turned out to be 93.2%. In addition, the activity at 5 µM came to 93.7%, the activity at 6 µM came to 92.5%, the activity at 7 µM was determined as 93.4% and the activity at 10 µM amounted to 94.1%. Further, the activity at 25 µM turned out to be 28.6% and the activity at 50 µM amounted to 12.9%.

As for `O=C1C=C(Oc2ccc3ccccc3c2)C(=O)c2ccccc21` [Analog F09, 2-(naphthalene-2-yloxy)-1,4-naphthoquinone], the activity at 1.2 µM turned out to be 117%, the activity at 2.5 µM was 114%, the activity at 5 µM turned out to be 106% and the activity at 7.5 µM was found to be 70%. The activity at 10 µM turned out to be 28.7%, the activity at 15 µM came to 1.97% and the activity at 20 µM was 3.09%.

Consider `CC(=O)NC1=C(Oc2cc(F)cc(F)c2)C(=O)c2ccccc2C1=O` [Analog F43, N-(3-(3,5-difluorophenoxy)-1,4-dioxo-1,4-dihydronaphthalen-2-yl)acetamide], for which the activity at 2 µM came out at 94.6%, the activity at 3 µM stood at 88.7%, the activity at 4 µM turned out to be 78.3% and the activity at 5 µM was 68.4%. The activity at 6 µM stood at 55.3%, the activity at 7 µM came to 45.2%, the activity at 10 µM was found to be 32.9% and the activity at 15 µM is 24.7%. Also, the activity at 25 µM worked out at 24.1%.

Take `O=C1C=C(Oc2ccc(Cl)cc2)C(=O)c2ccccc21` [Analog F14, 2-(4-chlorophenoxy)naphthalene-1,4-dione]: the activity at 1.2 µM was 100%, the activity at 2.5 µM turned out to be 92.3%, the activity at 5 µM was determined as 86.2% and the activity at 7.5 µM worked out at 71%. Moreover, the activity at 10 µM was 19.2%, the activity at 15 µM was 1.27% and the activity at 20 µM is 2.3%.

With `O=C1C(Br)=C(Oc2ccc(OC3=C(Br)C(=O)c4ccccc4C3=O)cc2)C(=O)c2ccccc21` [Analog F57, 3,3′-(1,4-phenylenebis(oxy))bis(2-bromonaphthalene-1,4-dione)], the activity at 2 µM is 98.2%, the activity at 3 µM is 98%, the activity at 4 µM worked out at 98.6% and the activity at 5 µM is 98.9%. Further, the activity at 6 µM was 95.7%, the activity at 7 µM came to 86.7%, the activity at 10 µM stood at 61.4% and the activity at 15 µM turned out to be 42.8%. For the same compound, the activity at 25 µM was 17.4%.

As for `CC(=O)NC1=C(Oc2ccc(OCc3ccccc3)cc2)C(=O)c2ccccc2C1=O` [Analog F42, N-(3-(4-(benzyloxy)phenoxy)-1,4-dioxo-1,4-dihydronaphthalen-2-yl)acetamide], the activity at 2 µM is 101%, the activity at 3 µM amounted to 101%, the activity at 4 µM came to 97.6% and the activity at 5 µM amounted to 89.1%. Also, the activity at 6 µM was 83.8%, the activity at 7 µM was determined as 75.3%, the activity at 10 µM was determined as 37.5% and the activity at 15 µM was found to be 20.2%. Moreover, the activity at 25 µM came out at 16.6%.

For the compound `O=C1C(Oc2ccccc2)=C(Oc2ccccc2)C(=O)c2ccccc21` [Analog F21, 2,3-diphenoxy-1,4-naphthoquinone], the activity at 2 µM is 102%, the activity at 3 µM amounted to 92.9%, the activity at 4 µM was 92.9% and the activity at 5 µM is 92.9%. Besides, the activity at 6 µM stood at 61.8%, the activity at 7 µM worked out at 54.4%, the activity at 10 µM turned out to be 26.1% and the activity at 15 µM turned out to be 16.2%. Also, the activity at 25 µM came to 16.3%.

As for `CC(=O)NC1=C(Oc2ccc(NC(C)=O)cc2)C(=O)c2ccccc2C1=O` [Analog F40, N-(4-((3-acetamido-1,4-dioxo-1,4-dihydronaphthalen-2-yl)oxy)phenyl)acetamide], the activity at 2 µM was found to be 97%, the activity at 3 µM was 98.8%, the activity at 4 µM turned out to be 89.2% and the activity at 5 µM worked out at 85.2%. The activity at 6 µM worked out at 73.2%, the activity at 7 µM was 67.3%, the activity at 10 µM was 56.2% and the activity at 15 µM stood at 46.1%. Moreover, the activity at 25 µM is 44.6%.

Source of the values: patent publication US10577315B2, “Compositions and methods for treatment of prostate carcinoma” (Pellficure Pharmaceuticals, Inc., priority 2014, dated 2020).
